# Columns and labels:
# Pigweed, Redroot = experiment: Test A preemergence; assay type: in vivo, Amaranthus retroflexus; conditions: 1000 g ai/ha, 0 to 100 scale (0 no effect, 100 complete control), 10 days
# Text: Seeds of plant species selected from barnyardgrass (Echinochloa crusgalli), blackgrass (Alopecurus myosuroides), corn (Zea mays), foxtail, giant (giant foxtail, Setaria faberi), goosegrass (Eleusine indica), kochia (Bassia scoparia), oat, wild (wild oat, Avena fatua), pigweed, palmer (palmer amaranth, palmer pigweed, Amaranthus palmeri), Pigweed, Redroot (redroot pigweed, Amaranthus retroflexus), ragweed (common ragweed, Ambrosia artemisiifolia), ryegrass, Italian (italian ryegrass, Lolium multiflorum), soybean (Glycine max), and wheat (Triticum aestivum) were planted into a blend of loam soil and sand and treated preemergence with a directed soil spray using test chemicals formulated in a non-phytotoxic solvent mixture which included a surfactant. At the same time, plants selected from these crops and weed species and also galium (catchweed bedstraw, Galium aparine) and horseweed (Erigeron canadensis) were planted in pots containing the same blend of loam soil and sand and treated with postemergence applications of test chemicals formulated in the same manner. Plants ranged in height from 2 to 10 cm and were in the one- to two-leaf stage for the postemergence treatment. Treated plants and untreated controls were maintained in a greenhouse for 10 days, after which time all treated plants were compared to untreated controls and visually evaluated for injury. Plant response ratings, summarized in Table A, are based on a 0 to 100 scale where 0 is no effect and 100 is complete control. A dash (-) response means no test result.
# ryegrass, Italian [1] = experiment: Test A preemergence; assay type: in vivo, Lolium multiflorum; conditions: 1000 g ai/ha, 0 to 100 scale (0 no effect, 100 complete control), 10 days
# Method in brief: (§1)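 Loam/sand soil; pre-em directed soil spray at planting, post-em spray at 1–2 leaf (2–10 cm). Compound in non-phytotoxic solvent + surfactant. Greenhouse 10 d; visual injury vs untreated, 0 = no effect, 100 = complete control.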
# kochia [2] = experiment: Test A preemergence; assay type: in vivo, Bassia scoparia; conditions: 1000 g ai/ha, 0 to 100 scale (0 no effect, 100 complete control), 10 days
# Method in brief: as §1
# ragweed [3] = experiment: Test A preemergence; assay type: in vivo, Ambrosia artemisiifolia; conditions: 1000 g ai/ha, 0 to 100 scale (0 no effect, 100 complete control), 10 days
# Method in brief: as §1
# barnyardgrass [4] = experiment: Test A preemergence; assay type: in vivo, Echinochloa crusgalli; conditions: 1000 g ai/ha, 0 to 100 scale (0 no effect, 100 complete control), 10 days
# Method in brief: as §1
# foxtail, giant [5] = experiment: Test A preemergence; assay type: in vivo, Setaria faberi; conditions: 1000 g ai/ha, 0 to 100 scale (0 no effect, 100 complete control), 10 days
# Method in brief: as §1
# corn [6] = experiment: Test C postemergence; assay type: in vivo, Zea mays; conditions: 10 days, 0 to 100 scale (0 no effect, 100 complete control)
# Method in brief: (§2)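 Test material, in non-phytotoxic solvent with surfactant, was sprayed on the soil directly after seeding (preemergence) or on young plants of 2–10 cm with one to two leaves (postemergence). Greenhouse, 10 days; 0–100 visual control scale.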
# kochia [7] = experiment: Test C preemergence; assay type: in vivo, Bassia scoparia
# Method in brief: as §2
# pigweed, palmer [8] = experiment: Test C postemergence; assay type: in vivo, Amaranthus palmeri; conditions: 10 days, 0 to 100 scale (0 no effect, 100 complete control)
# Method in brief: as §2
# barnyardgrass [9] = experiment: Test C preemergence; assay type: in vivo, Echinochloa crusgalli
# Method in brief: as §2
# soybean [10] = experiment: Test C preemergence; assay type: in vivo, Glycine max
# Method in brief: as §2
# horseweed = experiment: Test C postemergence; assay type: in vivo, Erigeron canadensis; conditions: 10 days, 0 to 100 scale (0 no effect, 100 complete control)
# Method in brief: as §2
# barnyardgrass [11] = experiment: Test C postemergence; assay type: in vivo, Echinochloa crusgalli; conditions: 10 days, 0 to 100 scale (0 no effect, 100 complete control)
# Method in brief: as §2
# sedge, umbrella = experiment: Test D flooded paddy test; assay type: in vivo, Cyperus difformis; conditions: 250 g ai/ha, applied to paddy water, visual rating after 13 to 14 days, scale 0 to 100 (0 no effect, 100 complete control)
# Method in brief: (§3)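 Post-flood water application at the 2-leaf stage; 3 cm flood depth kept constant; visual control rating 0–100 after 13–14 days greenhouse growth.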
# soybean [12] = experiment: Test C postemergence; assay type: in vivo, Glycine max; conditions: 10 days, 0 to 100 scale (0 no effect, 100 complete control)
# Method in brief: as §2
# oat, wild [13] = experiment: Test C preemergence; assay type: in vivo, Avena fatua
# Method in brief: as §2
# ragweed [14] = experiment: Test C postemergence; assay type: in vivo, Ambrosia artemisiifolia; conditions: 10 days, 0 to 100 scale (0 no effect, 100 complete control)
# Method in brief: as §2
# rice = experiment: Test D flooded paddy test; assay type: in vivo, Oryza sativa; conditions: 250 g ai/ha, applied to paddy water, visual rating after 13 to 14 days, scale 0 to 100 (0 no effect, 100 complete control)
# Method in brief: as §3
# blackgrass [15] = experiment: Test C preemergence; assay type: in vivo, Alopecurus myosuroides
# Method in brief: as §2
# ryegrass, Italian [16] = experiment: Test C postemergence; assay type: in vivo, Lolium multiflorum; conditions: 10 days, 0 to 100 scale (0 no effect, 100 complete control)
# Method in brief: as §2
# wheat [17] = experiment: Test C preemergence; assay type: in vivo, Triticum aestivum
# Method in brief: as §2
# galium = experiment: Test C postemergence; assay type: in vivo, Galium aparine; conditions: 10 days, 0 to 100 scale (0 no effect, 100 complete control)
# Method in brief: as §2
# kochia [18] = experiment: Test C postemergence; assay type: in vivo, Bassia scoparia; conditions: 10 days, 0 to 100 scale (0 no effect, 100 complete control)
# Method in brief: as §2
# corn [19] = experiment: Test C preemergence; assay type: in vivo, Zea mays
# Method in brief: as §2
# wheat [20] = experiment: Test C postemergence; assay type: in vivo, Triticum aestivum; conditions: 10 days, 0 to 100 scale (0 no effect, 100 complete control)
# Method in brief: as §2
# ducksalad = experiment: Test D flooded paddy test; assay type: in vivo, Heteranthera limosa; conditions: 250 g ai/ha, applied to paddy water, visual rating after 13 to 14 days, scale 0 to 100 (0 no effect, 100 complete control)
# Method in brief: as §3
# ryegrass, Italian [21] = experiment: Test C preemergence; assay type: in vivo, Lolium multiflorum
# Method in brief: as §2
# pigweed, palmer [22] = experiment: Test C preemergence; assay type: in vivo, Amaranthus palmeri
# Method in brief: as §2
# foxtail, giant [23] = experiment: Test C postemergence; assay type: in vivo, Setaria faberi; conditions: 10 days, 0 to 100 scale (0 no effect, 100 complete control)
# Method in brief: as §2
# oat, wild [24] = experiment: Test C postemergence; assay type: in vivo, Avena fatua; conditions: 10 days, 0 to 100 scale (0 no effect, 100 complete control)
# Method in brief: as §2
# barnyardgrass [25] = experiment: Test D flooded paddy test; assay type: in vivo, Echinochloa crus-galli; conditions: 250 g ai/ha, applied to paddy water, visual rating after 13 to 14 days, scale 0 to 100 (0 no effect, 100 complete control)
# Method in brief: as §3
# blackgrass [26] = experiment: Test C postemergence; assay type: in vivo, Alopecurus myosuroides; conditions: 10 days, 0 to 100 scale (0 no effect, 100 complete control)
# Method in brief: as §2
# foxtail, giant [27] = experiment: Test C preemergence; assay type: in vivo, Setaria faberi
# Method in brief: as §2
# ragweed [28] = experiment: Test C preemergence; assay type: in vivo, Ambrosia artemisiifolia
# Method in brief: as §2
# [29] = 500 g ai/ha, preemergence, 0 to 100 scale (0 no effect, 100 complete control)
# [30] = Preemergence, 125 g ai/ha, 0 to 100 scale, 0 no effect, 100 complete control
smiles,measurement,setting,value
CCC1CN(C(=O)c2ccnc(-n3cncn3)c2)c2cccc(C)c2O1 (stereo not shown) [Compound 11],"Plant response rating, Pigweed, Redroot","Pigweed, Redroot",90
same,"Plant response rating, Ryegrass, Italian","ryegrass, Italian [1]",50
same,"Plant response rating, Kochia",kochia [2],0
same,"Plant response rating, Ragweed",ragweed [3],0
same,"Plant response rating, Barnyardgrass",barnyardgrass [4],30
same,"Plant response rating, Foxtail, Giant","foxtail, giant [5]",100
CC1CN(C(=O)c2ccnc(-n3cncn3)c2)c2ccccc2O1 (stereo not shown) [Compounds 8],"Plant response rating, Pigweed, Redroot","Pigweed, Redroot",10
same,"Plant response rating, Ryegrass, Italian","ryegrass, Italian [1]",40
same,"Plant response rating, Kochia",kochia [2],50
same,"Plant response rating, Ragweed",ragweed [3],0
same,"Plant response rating, Barnyardgrass",barnyardgrass [4],0
same,"Plant response rating, Foxtail, Giant","foxtail, giant [5]",90
Cc1ccc(-n2cncn2)cc1C(=O)N1CC(C(F)(F)F)Oc2c(Cl)cccc21 (stereo not shown) [Compound 346],"Plant response rating, Corn","corn [6]; 500 g ai/ha, postemergence",90
same,"Plant response rating, Corn","corn [6]; Postemergence, 125 g ai/ha",10
same,Kochia plant response rating,kochia [7]; [29],80
same,"Plant response rating, Kochia",kochia [7]; [30],10
same,"Plant response rating, Pigweed, Palmer","pigweed, palmer [8]; 500 g ai/ha, postemergence",70
same,"Plant response rating, Pigweed, Palmer","pigweed, palmer [8]; Postemergence, 125 g ai/ha",40
same,Barnyardgrass plant response rating,barnyardgrass [9]; [29],100
same,"Plant response rating, Barnyardgrass",barnyardgrass [9]; [30],70
same,Soybean plant response rating,soybean [10]; [29],100
same,"Plant response rating, Soybean",soybean [10]; [30],30
same,"Plant response rating, Horseweed","horseweed; 500 g ai/ha, postemergence",0
same,"Plant response rating, Horseweed","horseweed; Postemergence, 125 g ai/ha",0
same,"Plant response rating, Barnyardgrass","barnyardgrass [11]; 500 g ai/ha, postemergence",70
same,"Plant response rating, Barnyardgrass","barnyardgrass [11]; Postemergence, 125 g ai/ha",40
same,"Plant response rating, Sedge, Umbrella (Flood)","sedge, umbrella",85
same,"Plant response rating, Soybean","soybean [12]; 500 g ai/ha, postemergence",100
same,"Plant response rating, Soybean","soybean [12]; Postemergence, 125 g ai/ha",90
same,"Oat, Wild plant response rating","oat, wild [13]; [29]",40
same,"Plant response rating, Oat, Wild","oat, wild [13]; [30]",0
same,"Plant response rating, Ragweed","ragweed [14]; 500 g ai/ha, postemergence",40
same,"Plant response rating, Ragweed","ragweed [14]; Postemergence, 125 g ai/ha",30
same,"Plant response rating, Rice (Flood)",rice,0
same,Blackgrass plant response rating,blackgrass [15]; [29],90
same,"Plant response rating, Blackgrass",blackgrass [15]; [30],80
same,"Plant response rating, Ryegrass, Italian","ryegrass, Italian [16]; 500 g ai/ha, postemergence",80
same,"Plant response rating, Ryegrass, Italian","ryegrass, Italian [16]; Postemergence, 125 g ai/ha",70
same,Wheat plant response rating,wheat [17]; [29],80
same,"Plant response rating, Wheat",wheat [17]; [30],0
same,"Plant response rating, Galium","galium; 500 g ai/ha, postemergence",100
same,"Plant response rating, Galium","galium; Postemergence, 125 g ai/ha",100
same,"Plant response rating, Kochia","kochia [18]; 500 g ai/ha, postemergence",80
same,"Plant response rating, Kochia","kochia [18]; Postemergence, 125 g ai/ha",70
same,Corn plant response rating,corn [19]; [29],90
same,"Plant response rating, Corn",corn [19]; [30],0
same,"Plant response rating, Wheat","wheat [20]; 500 g ai/ha, postemergence",70
same,"Plant response rating, Wheat","wheat [20]; Postemergence, 125 g ai/ha",20
same,"Plant response rating, Ducksalad (Flood)",ducksalad,65
same,"Ryegrass, Italian plant response rating","ryegrass, Italian [21]; [29]",90
same,"Plant response rating, Ryegrass, Italian","ryegrass, Italian [21]; [30]",80
same,"Pigweed, Palmer plant response rating","pigweed, palmer [22]; [29]",100
same,"Plant response rating, Pigweed, Palmer","pigweed, palmer [22]; [30]",100
same,"Plant response rating, Foxtail, Giant","foxtail, giant [23]; 500 g ai/ha, postemergence",90
same,"Plant response rating, Foxtail, Giant","foxtail, giant [23]; Postemergence, 125 g ai/ha",90
same,"Plant response rating, Oat, Wild","oat, wild [24]; 500 g ai/ha, postemergence",60
same,"Plant response rating, Oat, Wild","oat, wild [24]; Postemergence, 125 g ai/ha",0
same,"Plant response rating, Barnyardgrass (Flood)",barnyardgrass [25],0
same,"Plant response rating, Blackgrass","blackgrass [26]; 500 g ai/ha, postemergence",90
same,"Plant response rating, Blackgrass","blackgrass [26]; Postemergence, 125 g ai/ha",80
same,"Foxtail, Giant plant response rating","foxtail, giant [27]; [29]",100
same,"Plant response rating, Foxtail, Giant","foxtail, giant [27]; [30]",100
same,Ragweed plant response rating,ragweed [28]; [29],10
same,"Plant response rating, Ragweed",ragweed [28]; [30],0

# Reference: patent US20260262643A1, “HERBICIDAL BENZOXAZINES” (FMC CORPORATION, priority 2022, published 2026)
